Data reported in patent US20260209260A1, “VECTORIZED NHC IRIDIUM(III) COMPLEXES AND USE THEREOF IN PHOTODYNAMIC THERAPY AND/OR DIAGNOSTIC” (CENTRE NATIONAL DE LA RECHERCHE SCIENTIFIQUE, priority 2022, published 2026).
Where two headings read alike, the source gives them in different places.

Experiments:
[1] = Lipophilicity: octanol-water partition coefficient, shake-flask method
Experimental: The octanol-water partition coefficients (P) of all the complexes were determined using a shake-flask method^8. Water (100 mL, distilled after milli-Q purification) and n-octanol (100 mL, Sigma Aldrich, ACS spectrophotometric grade, ≥99%) were shaken together for 24 h to allow saturation of both phases. Stock solutions of the compounds ([…]) were prepared in the aqueous phase. Aliquots (2 mL) of each of these stock solutions were then added to an equal volume of the n-octanol phase. The resultant biphasic solution was mixed for 15 min and then centrifuged (3000 tr/min, 5 min) to separate the phases. The concentrations of the complex in the organic and aqueous phases were then determined using UV absorbance spectroscopy (260 nm). The blank is the water saturated with n-octanol. Log P was defined as logarithm of the ratio of the concentrations of the complex in the organic and aqueous phases (values reported are the means of at least three separated determinations).
The Log P values have been determined by a classical shake-flask method.

[2] = test system: PC-3 prostate cancer cells (PSMA-negative); assay: Cell viability assay (MTT), dark and blue light; format: cell-based, Human; settings: for Photosensitizing index (PI): PC3, dark vs blue light; for GI50: read-out: GI50
Experimental: (§1) Cells were grown in humidified incubators at 37° C. in 5% CO2. Murine MC3T3 osteoblast and NIH-3T3 fibroblast cells-used as non-tumor cell models-were cultured in a-MEM medium and DMEM medium supplemented with 10% fetal bovine serum (FBS) and 1% Penicillin/Streptomycin (P/S) antibiotics, respectively. Human T24 bladder, MGHU3 bladder, Scaber bladder, A549 lung, MCF7 breast, MiaPaCa2 pancreas cancer cells were cultured in DMEM medium supplemented with 10% FBS and 1% P/S antibiotics. Human ASPC-1 pancreas, PC-3 prostate, DU-145 prostate, C4-2B prostate and 22rV1 prostate cancer cells were cultured in RPMI medium supplemented with 10% FBS and 1% P/S antibiotics. Human Hela cervix and HepG2 liver cancer cells were cultured EMEM medium supplemented with 10% FBS and 1% P/S antibiotics.
(§2) MTT reagent (3-(4,5-dimethylthiazol-2-yl)-2,5-diphenyltetrazolium bromide) was used to determine cell death as originally described by Mosmann. Briefly, cells were seeded from 5,000 to 10,000 cells/well in 24-well plates (1 mL) depending on the cell type and allowed to attach overnight. The complexes were prepared in DMSO. The concentration of the complexes was calculated based on the elemental composition of the complexes determined by the elemental analyses. All cell viability experiments were carried out with a fixed concentration of 0.1% (v/v) DMSO. After 72 h of treatment, cells were incubated at 37° C. and 5% CO2 with 25 μL of MTT solution (5 mg/ml; Sigma-Aldrich) in 24-well plates for 3 to 4 h. After solubilization with 500 μL of DMSO, formazan was quantified spectrophotometrically with a microplate reader at 570 nm absorbance (ClarioSTAR, BMG LabTech). […] All the results were calculated from data obtained in at least three independent experiments performed in triplicate.
Irradiation was conducted using an in-house device, a series of blue light LEDs selected according to the absorption spectra of the compounds at 458 nm wavelength with an emitted power of 9.6 Watts. The light fluence was measured at 458 nm with an optical power meter Thorlabs PM100A at different distances between the cell layer and the light source (5 and 10 cm).
(§3) Two sets of experiments were conducted in parallel for each complex to be studied:
(§4) 1. The cells were incubated with the different complexes (in the dark) for 72 h.
(§5) 2. The cells were incubated for 8 h with the different complexes (in the dark), then irradiated for 10 min, followed by an incubation in the dark up to 72 h.

[3] = Emission lifetime measurement; format: physicochemical
Experimental: Fluorescence lifetime measurements were performed by an Edinburgh FLS920 spectrofluorimeter equipped with a TCC900 card for data acquisition in time-correlated single-photon counting experiments (0.5 ns time resolution) with a D2 lamp and an LDH—P-C-405 pulsed diode laser. The estimated experimental error is 2 nm on the band maximum (5% on the lifetime, 10% on the fluorescence quantum yield).
The emission lifetimes of biotin-vectorized complexes (I-a) to (I-l) range from 138 ns to 411 ns, among them, the lifetime of biotin-vectorized complexes (I-c), (I-e), (I-k) are 411, 224, and 322 ns respectively. The emission lifetimes of FTS-vectorized complexes (II-a) to (II-l) range from 167 ns to 486 ns, among them, the lifetime of FTS-vectorized complexes (II-c) and (II-k) are 319 and 486 ns respectively. The emission lifetimes of PSMA-vectorized complexes (III-a) to (III-l) are in the range of 159-649 ns, among them, the lifetime of complexes (III-a) and (III-k) were 248 and 649 ns, respectively. The emission lifetimes of Fc-vectorized complexes (IV-a) to (IV-l) are in the range of 178-228 ns.

[4] = UV/Vis absorption spectra; format: physicochemical; settings: room temperature; for λmax (nm) ε (M^−1 · cm^−1): air-saturated CH2Cl2 or CH2Cl2/MeOH (1:1), 50 μM, ε in brackets, sh = shoulder; for maximum absorption, lowest-lying bands in the visible region over 360 nm: CH2Cl2 or CH2Cl2/MeOH (1:1)
Experimental: UV/Vis absorption spectra were recorded at RT on solutions contained in quartz cuvettes (optical pathlength 1 cm, Hellma®) with a PerkinElmer® UV/VIS/NIR spectrophotometer Lambda 950 and a PerkinElmer® detector UV/VIS/NIR Accessory 2D Detector Module.

[5] = test system: NIH-3T3 fibroblast cells (non-tumor); assay: Cell viability assay (MTT), dark and blue light; format: cell-based, Murine; settings: for Photosensitizing index (PI): NIH-3T3, dark vs blue light; for GI50: read-out: GI50
Experimental: as §1, with “Human ASPC-1 pancreas, PC-3 prostate, DU-145 prostate, C4-2B prostate and 22rV1 prostate cancer cells were cultured in RPMI medium supplemented with 10% FBS and 1% P/S antibiotics.” left out
as §2, §3, §4, §5

[6] = Luminescence emission spectra and quantum yield; format: physicochemical; settings: for ΦP emission phosphorescence quantum yield: room temperature, reference POPOP in hexane or rhodamine B in ethanol
Experimental: Fluorescence and phosphorescence emission spectra were obtained with a HORIBA JOBIN YVON, fluromax-4 and spectrofluorometer.
Luminescence quantum yields were measured according to the method of Demas and Crosby, on solution samples at RT. The quantum yield is defined as: […]
Where ΦP is the quantum yield of the sample, ΦR is the know quantum yield of the reference standard. […].
The luminescence spectra of vectorized iridium(III) complexes were determined in CH2Cl2 at room temperature (Table 3).

[7] = n-octanol/water, shake-flask, mean of at least three determinations

Row | SMILES | Log P [1, 7] | SI (vs NIH-3T3) ([2]; PC3, dark) | Photosensitizing index (PI) [2] | Log P [1] | τ1 emission lifetime [3] [ns] | λmax (nm) ε (M^−1 · cm^−1) [4] | Photosensitizing index (PI) [5] | ΦP emission phosphorescence quantum yield [6] [%] | GI50 ([2]; PC3, dark) [µM] | SI (vs NIH-3T3) PC-3 Blue ([2]; blue light 458 nm) | maximum absorption, lowest-lying bands in the visible region over 360 nm [4] | GI50 ([5]; NIH-3T3, blue light) [µM] | GI50 ([5]; NIH-3T3, dark) [µM] | SI (vs NIH-3T3) ([2]; PC3, blue light) | GI50 ([2]; PC3, blue light) [µM] | λem ([6]; CH2Cl2, room temperature, λexc 365 nm or 470 nm) [nm]
1 | F[P-](F)(F)(F)(F)F.O=C(CCCC[C@@H]1SC[C@@H]2NC(=O)N[C@@H]21)NCCCn1cc[n+]2[c]1[Ir-3]13([c]4ccccc4-c4ccc(C(=O)O)c[n+]41)([c]1ccccc1-c1ccc(C(=O)O)c[n+]13)[n+]1ccccc1-2 [I-f] | −0.68 ± 0.07 |  |  |  |  |  |  |  |  |  |  |  |  |  |  | 
2 | F[P-](F)(F)(F)(F)F.O=C(NCCCn1cc[n+]2[c]1[Ir-3]13([c]4cc(F)cc(F)c4-c4cccc[n+]41)([c]1cc(F)cc(F)c1-c1cccc[n+]13)[n+]1ccccc1-2)[c-]1cccc1.[Fe+2].c1cc[cH-]c1 [IV-l] |  | 4.8 | 3.2 | 1.14 ± 0.02 | 191 | 305 (sh) (21345), 356 (sh) (8645), 412 (3395) nm (M^−1 · cm^−1) | 5.4 | 0.01 |  |  |  |  |  |  |  | 
3 | Cc1ccc2[c](c1)[Ir-3]13([c]4cc(C)ccc4-c4cccc[n+]41)([c]1n(CCCNC(=O)[c-]4cccc4)cc[n+]1-c1cccc[n+]13)[n+]1ccccc1-2.F[P-](F)(F)(F)(F)F.[Fe+2].c1cc[cH-]c1 [IV-b] | 1.63 ± 0.02 | 16.4 | 2.2 |  | 197 | 308 (sh) (27820), 379 (8620) nm (M^−1 · cm^−1) | 1.1 | 0.03 | 0.85 | 33.8 | around 380 nm | 13.2 | 13.9 |  |  | 
4 | COC(=O)c1cccc2[c]1[Ir-3]13([c]4c(C(=O)OC)cccc4-c4cccc[n+]41)([c]1n(CCCNC(=O)[c-]4cccc4)cc[n+]1-c1cccc[n+]13)[n+]1ccccc1-2.F[P-](F)(F)(F)(F)F.[Fe+2].c1cc[cH-]c1 [IV-d] | 0.77 ± 0.01 | 1.3 | 17.0 |  | 228 | 335 (sh) (9725), 372 (6540) nm (M^−1 · cm^−1) | 1.9 | 0.03 | 21.6 |  | around 370 nm |  |  | 12.0 | 1.3 | 
5 | F[P-](F)(F)(F)(F)F.O=C(NCCCn1cc[n+]2[c]1[Ir-3]13([c]4ccccc4-c4ccc5ccccc5[n+]41)([c]1ccccc1-c1ccc4ccccc4[n+]13)[n+]1ccccc1-2)[c-]1cccc1.[Fe+2].c1cc[cH-]c1 [IV-g] |  | 7.9 | 5.8 | 1.42 ± 0.06 | 214 | 334 (17135), 436 (4150) nm (M^−1 · cm^−1) | 3.3 | 0.02 | 1.5 |  |  |  | 11.8 | 13.7 |  | 579
6 | CC(C)=CCC/C(C)=C/CC/C(C)=C/CSc1ccccc1C(=O)NCCCn1cc[n+]2[c]1[Ir-3]13([c]4cc(C)ccc4-c4cccc[n+]41)([c]1cc(C)ccc1-c1cccc[n+]13)[n+]1ccccc1-2.F[P-](F)(F)(F)(F)F [II-b] |  |  |  | 1.68 ± 0.02 | 167 | 306 (sh) (15875), 382 (4560) nm (M^−1 · cm^−1) |  | 0.4 |  |  | around 380 nm |  |  |  |  | 
7 | F[P-](F)(F)(F)(F)F.O=C(O)c1ccc2[n+](c1)[Ir-3]13([c]4ccccc4-2)([c]2ccccc2-c2ccc(C(=O)O)c[n+]21)[c]1n(CCCNC(=O)[c-]2cccc2)cc[n+]1-c1cccc[n+]13.[Fe+2].c1cc[cH-]c1 [IV-f] | 1.08 ± 0.03 |  |  |  | 202 | 304 (sh) (22560), 410 (4150) nm (M^−1 · cm^−1) |  | 0.12 |  |  |  |  |  |  |  | 
8 | CC(C)=CCC/C(C)=C/CC/C(C)=C/CSc1ccccc1C(=O)NCCCn1cc[n+]2[c]1[Ir-3]13([c]4ccccc4-c4cccc[n+]41)([c]1ccccc1-c1cccc[n+]13)[n+]1ccccc1-2.F[P-](F)(F)(F)(F)F [II-a] |  |  |  | 1.70 ± 0.08 | 210 | 308 (sh) (14540), 380 (4505) nm (M^−1 · cm^−1) |  | 0.5 |  |  | around 380 nm |  |  |  |  | 
9 | COC(=O)c1ccc2[c](c1)[Ir-3]13([c]4cc(C(=O)OC)ccc4-c4cccc[n+]41)([c]1n(CCCNC(=O)c4ccccc4SC/C=C(\C)CC/C=C(\C)CCC=C(C)C)cc[n+]1-c1cccc[n+]13)[n+]1ccccc1-2.F[P-](F)(F)(F)(F)F [II-c] |  |  |  | 1.08 ± 0.01 | 319 | 310 (sh) (21710), 355 (5105), 398 (3925) nm (M^−1 · cm^−1) |  | 4.6 |  |  |  |  |  |  |  | 
10 | COC(=O)c1cccc2[c]1[Ir-3]13([c]4c(C(=O)OC)cccc4-c4cccc[n+]41)([c]1n(CCCNC(=O)c4ccccc4SC/C=C(\C)CC/C=C(\C)CCC=C(C)C)cc[n+]1-c1cccc[n+]13)[n+]1ccccc1-2.F[P-](F)(F)(F)(F)F [II-d] |  |  |  | 1.40 ± 0.02 | 201 | 372 (4535) nm (M^−1 · cm^−1) |  | 0.9 |  |  | around 370 nm |  |  |  |  | 
